Source: US12133900B2, “Synthesis and composition of amino acid linking groups conjugated to compounds used for the targeted imaging of tumors” (Purdue Research Foundation, priority 2013, dated 2024)
Entries after “also recorded” stand apart in the source; their conditions may differ.

Columns and labels:
[1] = molecular target: T1, folate receptor (FR-α) on KB cells (Homo sapiens, UniProt P15328); assay: Competition binding with [3H]-folic acid on KB cells
T1 construct: KB cells that overexpress FR-α were seeded in 24-well (100,000 cells/well) Falcon plates; host or cells: KB cells (human; described as a HeLa derivative)
T1 sequence (P15328 25-234): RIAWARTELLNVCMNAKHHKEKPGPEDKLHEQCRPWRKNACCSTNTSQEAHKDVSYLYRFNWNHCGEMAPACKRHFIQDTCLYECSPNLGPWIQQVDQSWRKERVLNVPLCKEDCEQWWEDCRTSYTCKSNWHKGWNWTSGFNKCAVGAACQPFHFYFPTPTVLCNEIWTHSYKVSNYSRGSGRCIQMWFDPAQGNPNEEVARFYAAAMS
Method: KB cells that overexpress FR-α were seeded in 24-well (100,000 cells/well) Falcon plates and allowed to form monolayers over a period of 24 h. […] After incubating for 1 hour at 37° C., cells were rinsed with PBS (2×0.5 mL) and 1M trichloroacetic acid (1×0.5 mL) to remove any unbound radioactive materials. After adding 1% sodium dodecylsulfate in PBS (0.5 mL), cells were transferred into individual scintillation vials containing Ecolume scintillation cocktail (3.0 mL) and counted in a liquid scintillation analyzer. The relative binding affinities were calculated using a plot of cell bound radioactivity versus the concentration of the test article using Graph Pad Prism 4.
(§1) KB cells that overexpress FR-α were seeded in 24-well (100,000 cells/well) Falcon plates (BD Biosciences, CA) and allowed to form monolayers over a period of 12 h. […] After incubating for 1 h at 37° C., cells were rinsed with PBS (3×0.5 mL, Gibco, NY) to remove any unbound radioactive materials. After adding 0.25 M sodium hydroxide (0.5 mL) and incubating for 12 h at 4° C., cells were transferred into individual scintillation vials containing Ecolite scintillation cocktail (3.0 mL, MP Biomedicals, OH) and counted in a liquid scintillation analyzer (Packard). The relative binding affinities were calculated using a plot of % cell bound radioactivity versus the log concentration of the test article using GraphPad Prism 4.
as §1, with “12 hours.” for “12 h.”, “1 hour” for “1 h”, “12 hours” for “12 h”

[2] = test system: FR-positive MDA-MB 231 tumor xenografts; assay: Imaging and biodistribution, MDA-MB 231 breast xenograft; type: in vivo, mice
Method: Seven-week-old female nu/nu mice were inoculated subcutaneously with KB (1.0×10^6/mouse in RPM11640 medium), IGROV (5.0×10^6/mouse in 50% high concentrated matrigel+RPM11640 medium), SKOV3 (5.0×10^6/mouse in RPM11640 medium), OVCAR3 (5.0×10^6/mouse in RPM11640 medium), MDA-MB231 (1.0×10^6/mouse in RPM11640 medium), M109 (1.0×10^6/mouse in RPM11640 medium) or A549 cells (2.0×10^6/mouse in RPM11640 medium) on the shoulder. Growth of the tumors was measured in perpendicular directions every 2 days using a caliper (body weights were monitored on the same schedule), and the volumes of the tumors were calculated as 0.5×L×W^2 (L=longest axis and W=axis perpendicular to L in millimeters). Once tumors reached approximately 300-400 mm3 in volume, animals (3-5 mice/group) were intravenously injected with the compound of interest in PBS (for dose escalation in KB tumor model: 0.3-90 nmol, for time dependent in KB tumor model: 2 or 10 nmol, and for general whole body imaging and biodistribution for all tumor models: 2 nmol, in 100 μL in PBS per mouse). For whole body imaging and biodistribution studies, animals were euthanized 2 hours after administration of the compound of interest by CO2 asphyxiation. For time dependent studies, animals were imaged under anesthesia using isoflurane. Whole body imaging (intact tumor) experiments was then performed using a Caliper IVIS Lumina II Imaging Station with Living Image 4.0 software (PerkinElmer Inc, MA).
Following whole body imaging, animals were dissected and selected tissues (heart, lung, liver, spleen, kidneys, stomach, small intestine, large intestine, muscle, skin, and tumor) were analyzed for fluorescence activity using IVIS imager using same settings as in whole body imaging.

FR-alpha and beta = details: cited from earlier work

CC1(C)C(/C=C/C2=C(Oc3ccc(C[C@H](NC(=O)c4ccc(NCc5cnc6nc(N)[nH]c(=O)c6n5)cc4)C(=O)[O-])cc3)C(=C/C=C3\N(CCCCS(=O)(=O)[O-])c4ccc(S(=O)(=O)[O-])cc4C3(C)C)/CCC2)=[N+](CCCCS(=O)(=O)[O-])c2ccc(S(=O)(=O)[O-])cc21.[H+].[H+].[H+].[H+] [OTL-0038, Pte-Tyr-S0456]
affinity and specificity for folate receptor (words) ([1]; KB cells): compares well with the binding affinity of folic acid
competition with [3H]-folic acid ([1]; KB cells): competed well with [3H]-folic acid
affinity and specificity for folate receptor (words) ([1]; KB cells, listed as OTL38): binds to FR with high affinity and specificity
affinity and specificity for folate receptor (words) ([1]; KB cells, listed as Pte-Tyr-S0456): binds folate receptor with high affinity and specificity
Relative binding affinities ([1]; relative affinity of folic acid=1, <1 weaker): 0.71
ex-vivo tissue biodistribution ([2]; 2 nmol, 2 h): highest fluorescence intensities were observed in FR-positive tumors and kidneys
tumor-to-normal tissue ratios ([2]; 2 nmol, 2 h): excellent tumor-to-normal tissue ratios
whole body imaging: accumulation ([2]; 2 nmol, 2 h, listed as OTL38): accumulated mainly in the FR-positive MDA-MB 231 tumor xenografts; also recorded: mainly accumulated in FR-positive MDA-MB 231 tumor xenografts and kidneys
accumulation in tumor and kidneys after blocking the FR ([2]; 100 fold excess of folic acid prior to 2 nmol, 2 h): inhibited by the administration of 100 fold excess of folic acid
specificity for FR (conclusion) ([2]; blocking with excess folic acid): highly specific for FR
affinity for FR-alpha versus beta (FR-alpha and beta): binds to FR-alpha and beta with same affinity
